In patent US12617794B2, “GABAA positive allosteric modulator compounds, methods of making, and uses thereof” (NEUROCYCLE THERAPEUTICS, INC., priority 2019, dated 2026):
Where two headings read alike, the source gives them in different places.

Assays:
[1] = Hygroscopicity by dynamic vapor sorption (DVS), Example 4; assay type: physicochemical
Protocol: The hygroscopicity of Phosphate Polymorph Form A was measured by Dynamic vapor sorption (DVS). […] After DVS, XRPD confirmed that the crystalline form was retained (FIG. 19).

[2] = Solubility in aqueous buffers, SGF, FaSSIF and FeSSIF (Example 15); assay type: physicochemical; settings: for solubility thermodynamic: 20 °C, thermodynamic from solid, read-out: Measured Conc.; for solubility thermodynamic / Measured Conc. (μg/mL): ~20-25° C., ~24 hours
Protocol: About 2 mg of test article was added to a 1.5 mL vials which contained ˜1.0 mL of one medium listed in Table 7 and Table 8, which was then sealed. The mixtures were stirred at ˜20-25° C. for ˜24 hours. After that, the mixture was filtered by 0.45 μm filter membrane and then the supernatant was analyzed by HPLC.

[3] = Pharmacokinetics in rats (Example 17); assay type: in vivo, Sprague-dawley rats; settings: rat, PO 2 mg/kg, mean
Protocol: To evaluate the pharmacokinetics (PK) of Phosphate Polymorphic Form A, suspensions or solutions were dosed by either oral gavage (0.5% methyl cellulose) or IV (60% PEG400/40% saline) in normal, healthy, male Sprague-dawley rats with serial blood collection focused on the first 48 hours of exposure. Rats were dosed with vehicle or test compounds at 1 mg/kg (IV) or 2 mg/kg (PO). Approximately 0.2 mL blood was collected at each time point. All blood samples were collected jugular vein puncture. All blood samples were transferred into plastic microcentrifuge tubes containing 5 μL of EDTA-K2 as anti-coagulant or pre-chilled commercial EDTA-K2 tubes and placed on wet ice until centrifugation. Harvested blood samples were centrifuged within 30 min of collection at 7,000 rpm for 10 minutes. The extracts were analyzed for compound concentration by LC/MS/MS. Data were analyzed with Phoenix WinNonlin 6.3 using the IV-Noncompartmental model 201 (IV bolus input) and PO-Noncompartmental model 200 (extravascular input) methods.

[4] = Mechanical treatment (grinding) of Phosphate Form A; assay type: physicochemical; settings: for crystal form after grinding (XRPD): ground manually with mortar and pestle, 3-5 minutes
From the text: The crystal form was unchanged after grinding.

[5] = Solid-state stability of Phosphate Form A at 40° C./75% RH and 25° C./95% RH (Example 36); assay type: physicochemical; settings: up to two weeks
[6] = Slurry of Phosphate Form A in acetone with different water content (Example 68); assay type: physicochemical; settings: for Result (solid form after slurry): slurry in acetone at RT
From the text: The suspension was stirred at RT for hours. The solid was isolated and analyzed. […] Phosphate dissociated when water content is >, 4% wt. in acetone at RT.

[7] = Fast cooling crystallization (Example 63); assay type: physicochemical; settings: fast cooling to 4° C. or −20° C.
Protocol: The suspensions were filtered to obtain saturated solution which was cooled to final temperature (4° C. or −20° C.) immediately and characterized.
The suspensions were filtered to obtain saturated solutions which were immediately cooled to final temperature (4° C. or −20° C.). Any solids obtained were characterized.

[8] = Preliminary (estimated) solubility study of TPA023B Phosphate Form A (30.3, Example 34); assay type: physicochemical; settings: estimated by visual observation
Protocol: Then the mixture was agitated in a shaker block for at least 30 mins. Additional solvent was added in a stepwise manner until all solids were dissolved. The dissolution was checked by visual observation and the amount of solvent required to dissolve all the solids was recorded.

[9] = Approximate solubility study of TPA023B phosphate (Example 25); assay type: physicochemical; settings: RT, listed as TPA023B phosphate
Protocol: The total amount of solvent was recorded to calculate the approximate solubility in these solvents.

[10] = Polymer induced crystallization (Example 67); assay type: physicochemical; settings: evaporative crystallization at RT, ~10% polymer
Protocol: Then ˜10% of polymer was added into clear solution. The mixture was evaporated to dryness at RT. The solid was isolated and characterized.
No new phosphate form was obtained.

[11] = One week accelerated stability testing (Example 3); assay type: physicochemical
Protocol: The stability of Phosphate Polymorphic Form A and Free Base Polymorphic Form A were evaluated under accelerated conditions.

crystalline form after DVS (XRPD) [1]: retained
reversible mass increase (DVS) [1]: about 1.08%
solubility thermodynamic ([2]; FaSSIF, fassif, FaSSIF): 0.00714 mg/mL
solubility thermodynamic ([2]; FeSSIF, fessif, FeSSIF): 0.0507 mg/mL
solubility thermodynamic ([2]; SGF, simulated gastric fluid, SGF): 0.00385 mg/mL
solubility thermodynamic ([2]; citrate buffer, pH 3, aqueous buffer, pH 3.0 citrate buffer (100 mM), LOQ: 0.1 μg/mL): 0.00016 mg/mL
solubility compared with Free Base Polymorphic Form A ([2]; in SGF, FaSSIF and FeSSIF): higher solubility
Measured Conc. (μg/mL) ([2]; pH 4.5 citrate buffer (100 mM), LOQ: 0.1 μg/mL): <LOQ
Measured Conc. (μg/mL) ([2]; pH 7.4 PBS (50 mM), LOQ: 0.1 μg/mL): <LOQ
Measured Conc. (μg/mL) ([2]; pH 9.0 USP Buffer (50 mM), LOQ: 0.1 μg/mL): <LOQ
AUCExtra (%) [3]: 6.25%
crystallinity after grinding [4]: decreased
crystal form after grinding (XRPD) ([4]; listed as Phosphate Form A): unchanged
crystal form after grinding (XRPD) ([4]; listed as TPA023B Phosphate Form A): remained unchanged
crystal form after grinding (XRPD) ([4]; listed as phosphate Form A): no change
crystal form after storage ([5]; 25° C./95% RH): remained unchanged
crystal form after storage ([5]; 40° C./75% RH): remained unchanged
Result (solid form after slurry) ([6]; water content 3 wt. %): Phosphate Form A
Result (solid form after slurry) ([6]; water content 3.5 wt. %): Phosphate Form A
Result (solid form after slurry) ([6]; water content 4 wt. %): Phosphate Form A + Free Base Form E
Result (solid form after slurry) ([6]; water content 4.5 wt. %): Phosphate Form A + Free Base Form E
Result (solid form after slurry) ([6]; water content 5 wt. %): Phosphate Form A + Free Base Form E
Result (solid form after slurry) ([6]; water content 5.5 wt. %): Phosphate Form A + Free Base Form E
Result (solid form after slurry) ([6]; water content 6 wt. %): Phosphate Form A + Free Base Form E
solid form after slurry in acetone ([6]; water content <3.5% wt., RT): remained unchanged
solid form after slurry in acetone ([6]; water content >, 4% wt. in acetone at RT): dissociated
Result (solid form obtained) ([7]; solvent 1,4-dioxane): No solid
Result (solid form obtained) ([7]; solvent 1-methyl-2-pyrrolidone): No solid
Result (solid form obtained) ([7]; solvent 2-butanone): Phosphate Form A
Result (solid form obtained) ([7]; solvent 2-methyl tetrahydrofuran): No solid
Result (solid form obtained) ([7]; solvent 4-methyl-2-pentanone): Phosphate Form A
Result (solid form obtained) ([7]; solvent ACN): Phosphate Form A
Result (solid form obtained) ([7]; solvent Acetone): Phosphate Form A
Result (solid form obtained) ([7]; solvent Anisole): No solid
Result (solid form obtained) ([7]; solvent BAC): Phosphate Form A
Result (solid form obtained) ([7]; solvent Butanol): Freebase form A
Result (solid form obtained) ([7]; solvent DMF): No solid
Result (solid form obtained) ([7]; solvent DMSO): No solid
Result (solid form obtained) ([7]; solvent EA): Phosphate Form A
Result (solid form obtained) ([7]; solvent Ethyl formate): Phosphate Form A
Result (solid form obtained) ([7]; solvent Isoamyl alcohol): New Free Base pattern K
Result (solid form obtained) ([7]; solvent MAC): Phosphate Form A
Result (solid form obtained) ([7]; solvent MEK): Phosphate Form A
Result (solid form obtained) ([7]; solvent Propyl acetate): Phosphate Form A
Result (solid form obtained) ([7]; solvent THF): No solid
solubility ([8]; 1,4-Dioxane, organic solvent or mixture, thermodynamic from solid, 1,4-Dioxane, read-out: Solubility): 25 mg/mL
solubility ([8]; 2-Me THF, organic solvent or mixture, thermodynamic from solid, 2-Me THF, read-out: Solubility): 20 mg/mL
solubility ([8]; ACN, organic solvent or mixture, thermodynamic from solid, ACN, read-out: Solubility): < 2 mg/mL
solubility ([8]; DCM, organic solvent or mixture, thermodynamic from solid, DCM, read-out: Solubility): 2 mg/mL
solubility ([8]; DMF, organic solvent or mixture, thermodynamic from solid, DMF, read-out: Solubility): 96 mg/mL
solubility ([8]; DMSO, organic solvent or mixture, thermodynamic from solid, DMSO, read-out: Solubility): 93 mg/mL
solubility ([8]; EA, organic solvent or mixture, thermodynamic from solid, EA, read-out: Solubility): < 2 mg/mL
solubility ([8]; EA, listed as TPA023B Phosphate Form A): <2 mg/mL
solubility ([8]; Heptane, listed as TPA023B Phosphate Form A): <1 mg/mL
solubility ([8]; IPA, organic solvent or mixture, thermodynamic from solid, IPA, read-out: Solubility): 2.5 mg/mL
solubility ([8]; MTBE, organic solvent or mixture, thermodynamic from solid, MTBE, read-out: Solubility): < 2 mg/mL
solubility ([8]; MTBE, listed as TPA023B Phosphate Form A): <1.5 mg/mL
solubility ([8]; THF, organic solvent or mixture, thermodynamic from solid, THF, read-out: Solubility): 28 mg/mL
solubility ([8]; Water, listed as TPA023B Phosphate Form A): <2 mg/mL
solubility ([8]; acetone, organic solvent or mixture, thermodynamic from solid, Acetone, read-out: Solubility): 7 mg/mL
solubility ([8]; ethanol, organic solvent or mixture, thermodynamic from solid, Ethanol, read-out: Solubility): 3 mg/mL
solubility ([8]; heptane, organic solvent or mixture, thermodynamic from solid, Heptane, read-out: Solubility): < 2 mg/mL
solubility ([8]; methanol, organic solvent or mixture, thermodynamic from solid, Methanol, read-out: Solubility): 9.5 mg/mL
solubility ([8]; water, thermodynamic from solid, Water, read-out: Solubility): < 2 mg/mL
Solubility (mg/mL) ([9]; DMF): relatively high solubility
Solubility (mg/mL) ([9]; DMSO): relatively high solubility
Result (solid form obtained) ([10]; solvent MEK, polymer EC (Ethyl cellulose)): Phosphate Form A
Result (solid form obtained) ([10]; solvent MEK, polymer PAA Poly(acrylic acid)): Phosphate Form A
Result (solid form obtained) ([10]; solvent MEK, polymer PEG4000, listed as Phosphate Form A): Free Base Form F
Result (solid form obtained) ([10]; solvent MEK, polymer PVP-K30 (Polyvinyl pyrrolidone), listed as Phosphate Form A): Free Base Form F
Result (solid form obtained) ([10]; solvent THF, polymer EC): Phosphate Form A
Result (solid form obtained) ([10]; solvent THF, polymer PAA Poly): Phosphate Form A
Result (solid form obtained) ([10]; solvent THF, polymer PEG4000): Phosphate Form A
Result (solid form obtained) ([10]; solvent THF, polymer PVP-K30): Phosphate Form 1A
Assay (%) ([11]; 40° C./75% RH (open), 1 week): 97.12%
Purity (%) ([11]; 40° C./75% RH (open), 1 week): 99.02%
Assay (%) ([11]; 80° C. (open), 1 week): 95.99%
Purity (%) ([11]; 80° C. (open), 1 week): 98.94%
Purity (%) ([11]; Initial): 98.91%
Assay (%) ([11]; Initial, assay criterion 95%-105%): 104.60%
Assay (%) ([11]; Light, ~50 h): 95.25%
Purity (%) ([11]; Light, ~50 h): 97.55%
Compound: CC(C)(O)c1cnn2c(-c3ccc(F)c(-c4c(F)cccc4C#N)c3)cnc2n1 [Phosphate Polymorphic Form A, 2′,6-difluoro-5′-[3-(1-hydroxy-1-methylethyl)-imidazo[1,2-b][1,2,4]triazin-7-yl]biphenyl-2-carbonitrile]
